Test results as given in patent US20080009418A1, “Selective Inhibitors” (Alchemia LTD., priority 2004, published 2008).

Columns and labels:
[1] = target: T1, Human δ-opioid (DOP) (Homo sapiens, UniProt P41143); assay: Radioligand binding, human δ-opioid (DOP) membranes, FlashPlate, [3H]-Bremazocine; details: compound at 10 μM; for A1 radioligand binding inhibition: human δ-opioid (DOP) membranes
T1 construct: purchased Perkin Elmer Biosignal
How it was run: (§1)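 Cloned human receptor membranes were coated onto FlashPlate wells and incubated with radioligand and compound (added from a 0.5 mM DMSO daughter plate) for 1 hour at room temperature in the dark. Scintillation counting gave percent inhibition, with DMSO defining total and reference ligand defining non-specific binding.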

[2] = target: T2, Human κ-Opioid (KOP) (Homo sapiens, UniProt P41145); assay: Radioligand binding, human κ-opioid (KOP) membranes, filtration, [3H]-Diprenorphine; details: compound at 10 μM; for A2 radioligand binding inhibition: human κ-opioid (KOP) membranes
T2 construct: purchased Perkin Elmer Biosignal
How it was run: (§2)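 Membranes from cloned human receptors were incubated with compound and radioligand for 1 hour at room temperature. Bound ligand was collected on 0.3% PEI-soaked filters, washed with cold 50 mM Tris-HCl pH 7.4, and counted by scintillation. Percent inhibition was computed against DMSO totals and reference-ligand nonspecific wells.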

[3] = target: T3, Human Melanocortin (MC3) (Homo sapiens, UniProt P41968); assay: Radioligand binding, human melanocortin MC3 membranes, FlashPlate, [125I]-NDP-αMSH; details: compound at 10 μM; for A3 radioligand binding inhibition: human melanocortin MC3 membranes
T3 construct: purchased Perkin Elmer Biosignal
How it was run: as §1

[4] = target: T4, Human Melanocortin (MC4) (Homo sapiens, UniProt P32245); assay: Radioligand binding, human melanocortin MC4 membranes, FlashPlate, [125I]-NDP-αMSH; details: compound at 10 μM; for A4 radioligand binding inhibition: human melanocortin MC4 membranes
T4 construct: purchased Perkin Elmer Biosignal
How it was run: as §1

[5] = target: T5, Human melanocortin (MC5) (Homo sapiens, UniProt P33032); assay: Radioligand binding, human melanocortin MC5 membranes, FlashPlate, [125I]-NDP-αMSH; details: compound at 10 μM; for A5 radioligand binding inhibition: human melanocortin MC5 membranes
T5 construct: purchased Perkin Elmer Biosignal
How it was run: as §1

[6] = target: T6, Human melanin-concentrating hormone (MCH1) (Homo sapiens, UniProt Q99705); assay: Radioligand binding, human melanin-concentrating hormone MCH1 membranes, FlashPlate, [125I]-S36057; details: compound at 10 μM; for A6: inhibition of radioligand binding, human melanin-concentrating hormone (MCH1): [125I]-S36057; for A6 radioligand binding inhibition: human MCH1 membranes
T6 construct: purchased Perkin Elmer Biosignal
How it was run: as §1

[7] = target: T7, Human μ-opioid (MOP) (Homo sapiens, UniProt P35372); assay: Radioligand binding, human μ-opioid (MOP) membranes, FlashPlate, [3H]-Naloxone; details: compound at 10 μM; for A7 radioligand binding inhibition: human μ-opioid (MOP) membranes
T7 construct: purchased Perkin Elmer Biosignal
How it was run: as §1

[8] = target: T8, Human neurokinin (NK1) (Homo sapiens, UniProt P25103); assay: Radioligand binding, human neurokinin NK1 membranes, filtration, [125I]-Substance P; details: compound at 10 μM; for A8 radioligand binding inhibition: human neurokinin NK1 membranes
T8 construct: purchased Perkin Elmer Biosignal
How it was run: as §2

[9] = target: T9, Human neuropeptide Y (NPY-Y1) (Homo sapiens, UniProt P25929); assay: Radioligand binding, human neuropeptide Y NPY-Y1 membranes, FlashPlate, [125I]-PYY; details: compound at 10 μM; for A9 radioligand binding inhibition: human NPY-Y1 membranes
T9 construct: purchased Perkin Elmer Biosignal
T9 sequence (P25929 1-384): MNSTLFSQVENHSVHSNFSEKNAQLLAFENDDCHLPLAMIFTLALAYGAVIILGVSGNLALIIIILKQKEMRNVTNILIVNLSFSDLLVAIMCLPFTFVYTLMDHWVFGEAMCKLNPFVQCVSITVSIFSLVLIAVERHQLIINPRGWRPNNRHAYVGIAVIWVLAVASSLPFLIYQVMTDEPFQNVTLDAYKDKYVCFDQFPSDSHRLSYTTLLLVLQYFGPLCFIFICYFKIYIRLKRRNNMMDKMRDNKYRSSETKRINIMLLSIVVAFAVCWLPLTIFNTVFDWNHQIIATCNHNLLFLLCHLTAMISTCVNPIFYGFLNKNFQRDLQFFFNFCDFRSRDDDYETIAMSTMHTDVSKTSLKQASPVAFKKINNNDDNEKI
How it was run: as §1

[10] = target: T10, Human opioid (ORL1) (Homo sapiens, UniProt P41146); assay: Radioligand binding, human opioid ORL1 membranes, FlashPlate, [125I]-Nociceptin; details: compound at 10 μM; for A10 radioligand binding inhibition: human ORL1 membranes
T10 construct: purchased Perkin Elmer Biosignal
How it was run: as §1

[11] = target: T11, Mouse urotensin (mUR2) (Mus musculus, UniProt Q8VIH9); assay: Radioligand binding, mouse urotensin mUR2 membranes, FlashPlate, [125I]-Urotensin II; details: compound at 10 μM; for A11 radioligand binding inhibition: mouse urotensin mUR2 membranes
T11 construct: purchased Perkin Elmer Biosignal
T11 sequence (Q8VIH9 1-385): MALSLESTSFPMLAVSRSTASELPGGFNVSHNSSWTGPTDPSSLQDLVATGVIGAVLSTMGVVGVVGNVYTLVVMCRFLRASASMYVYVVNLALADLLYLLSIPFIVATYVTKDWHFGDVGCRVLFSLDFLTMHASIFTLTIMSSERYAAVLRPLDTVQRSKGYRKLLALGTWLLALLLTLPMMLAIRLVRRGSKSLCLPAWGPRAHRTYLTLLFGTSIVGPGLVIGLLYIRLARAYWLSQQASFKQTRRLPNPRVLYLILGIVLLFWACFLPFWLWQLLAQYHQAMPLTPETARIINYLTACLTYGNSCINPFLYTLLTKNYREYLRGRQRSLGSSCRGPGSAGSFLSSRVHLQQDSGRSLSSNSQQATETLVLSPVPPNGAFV
How it was run: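 Cloned mouse urotensin (mUR2) receptor membranes from Perkin Elmer Biosignal were immobilized in FlashPlate microplates using a proprietary coating. Each well got 19.5 μl buffer, then 0.5 μl of DMSO, reference ligand, or compound. Adding 5 μl of [125I]-Urotensin II, diluted to 5× final concentration in binding buffer, started binding. Plates were sealed with TopSeal-A and incubated 1 hour at room temperature in the dark. Wells were counted for 30 seconds each on a TopCount after a 60-second delay, and percentage inhibition was calculated.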

T3 sequence (P41968 whole entry): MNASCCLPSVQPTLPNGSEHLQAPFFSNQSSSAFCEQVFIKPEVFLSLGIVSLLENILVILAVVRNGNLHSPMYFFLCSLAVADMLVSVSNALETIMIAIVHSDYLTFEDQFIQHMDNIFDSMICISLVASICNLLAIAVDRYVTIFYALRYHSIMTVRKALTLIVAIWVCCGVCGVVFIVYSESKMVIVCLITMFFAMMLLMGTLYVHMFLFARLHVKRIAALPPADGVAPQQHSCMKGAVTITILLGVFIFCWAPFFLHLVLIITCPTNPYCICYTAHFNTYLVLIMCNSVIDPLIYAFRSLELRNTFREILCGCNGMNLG
T8 sequence (P25103 whole entry): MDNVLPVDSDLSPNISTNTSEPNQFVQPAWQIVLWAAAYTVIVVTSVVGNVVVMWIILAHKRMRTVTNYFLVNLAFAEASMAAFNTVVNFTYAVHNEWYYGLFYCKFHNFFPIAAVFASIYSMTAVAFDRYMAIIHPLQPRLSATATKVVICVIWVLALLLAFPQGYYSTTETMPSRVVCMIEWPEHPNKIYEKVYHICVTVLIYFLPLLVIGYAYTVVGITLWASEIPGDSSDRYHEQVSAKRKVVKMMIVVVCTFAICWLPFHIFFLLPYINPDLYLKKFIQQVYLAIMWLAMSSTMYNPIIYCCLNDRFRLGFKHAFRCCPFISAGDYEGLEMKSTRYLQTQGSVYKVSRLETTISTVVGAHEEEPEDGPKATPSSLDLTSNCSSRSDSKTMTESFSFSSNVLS
T4 sequence (P32245 whole entry): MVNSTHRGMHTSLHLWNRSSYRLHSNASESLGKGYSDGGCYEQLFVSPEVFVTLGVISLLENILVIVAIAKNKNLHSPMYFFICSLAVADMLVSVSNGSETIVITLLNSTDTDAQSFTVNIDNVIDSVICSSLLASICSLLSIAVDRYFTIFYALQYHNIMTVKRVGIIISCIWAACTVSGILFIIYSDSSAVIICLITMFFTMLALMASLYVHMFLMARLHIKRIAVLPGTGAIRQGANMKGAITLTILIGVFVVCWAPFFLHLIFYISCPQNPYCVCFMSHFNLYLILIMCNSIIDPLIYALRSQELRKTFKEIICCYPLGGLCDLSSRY
T10 sequence (P41146 whole entry): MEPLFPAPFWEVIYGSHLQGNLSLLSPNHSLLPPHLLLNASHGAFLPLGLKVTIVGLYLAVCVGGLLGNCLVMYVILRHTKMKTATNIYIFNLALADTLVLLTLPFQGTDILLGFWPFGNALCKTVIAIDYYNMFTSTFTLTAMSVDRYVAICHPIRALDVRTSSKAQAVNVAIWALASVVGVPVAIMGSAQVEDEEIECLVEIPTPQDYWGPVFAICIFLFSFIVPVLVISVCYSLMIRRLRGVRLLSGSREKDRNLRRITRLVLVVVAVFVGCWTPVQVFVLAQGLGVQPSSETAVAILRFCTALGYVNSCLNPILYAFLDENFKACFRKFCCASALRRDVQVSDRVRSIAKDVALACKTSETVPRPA
T2 sequence (P41145 whole entry): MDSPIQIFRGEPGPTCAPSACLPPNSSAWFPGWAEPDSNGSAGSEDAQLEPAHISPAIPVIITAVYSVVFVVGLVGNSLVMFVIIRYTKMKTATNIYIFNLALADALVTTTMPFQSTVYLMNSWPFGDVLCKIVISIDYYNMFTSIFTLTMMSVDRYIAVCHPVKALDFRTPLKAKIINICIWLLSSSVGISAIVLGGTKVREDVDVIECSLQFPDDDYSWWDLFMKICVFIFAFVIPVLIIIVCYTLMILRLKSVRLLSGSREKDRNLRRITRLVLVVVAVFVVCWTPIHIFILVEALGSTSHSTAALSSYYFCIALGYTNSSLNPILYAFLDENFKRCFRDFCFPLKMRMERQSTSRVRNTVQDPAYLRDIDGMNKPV
T7 sequence (P35372 whole entry): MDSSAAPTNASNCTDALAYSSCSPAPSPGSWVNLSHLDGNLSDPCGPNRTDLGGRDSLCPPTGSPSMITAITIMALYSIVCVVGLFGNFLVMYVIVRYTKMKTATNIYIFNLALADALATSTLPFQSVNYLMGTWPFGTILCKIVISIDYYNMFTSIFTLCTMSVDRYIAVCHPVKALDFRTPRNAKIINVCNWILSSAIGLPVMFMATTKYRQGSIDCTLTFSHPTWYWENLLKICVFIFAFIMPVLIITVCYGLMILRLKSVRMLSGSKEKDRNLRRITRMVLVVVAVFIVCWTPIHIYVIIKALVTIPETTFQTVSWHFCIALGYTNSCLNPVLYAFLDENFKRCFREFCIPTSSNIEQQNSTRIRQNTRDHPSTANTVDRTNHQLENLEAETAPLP
T6 sequence (Q99705 whole entry): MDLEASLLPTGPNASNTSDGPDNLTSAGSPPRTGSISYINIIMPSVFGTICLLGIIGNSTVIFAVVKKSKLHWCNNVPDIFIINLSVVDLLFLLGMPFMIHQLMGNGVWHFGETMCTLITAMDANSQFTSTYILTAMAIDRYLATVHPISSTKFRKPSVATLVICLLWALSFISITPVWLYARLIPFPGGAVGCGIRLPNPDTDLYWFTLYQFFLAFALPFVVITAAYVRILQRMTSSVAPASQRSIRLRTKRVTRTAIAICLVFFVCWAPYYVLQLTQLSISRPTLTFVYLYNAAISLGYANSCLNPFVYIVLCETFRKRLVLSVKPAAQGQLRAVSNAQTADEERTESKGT
T5 sequence (P33032 whole entry): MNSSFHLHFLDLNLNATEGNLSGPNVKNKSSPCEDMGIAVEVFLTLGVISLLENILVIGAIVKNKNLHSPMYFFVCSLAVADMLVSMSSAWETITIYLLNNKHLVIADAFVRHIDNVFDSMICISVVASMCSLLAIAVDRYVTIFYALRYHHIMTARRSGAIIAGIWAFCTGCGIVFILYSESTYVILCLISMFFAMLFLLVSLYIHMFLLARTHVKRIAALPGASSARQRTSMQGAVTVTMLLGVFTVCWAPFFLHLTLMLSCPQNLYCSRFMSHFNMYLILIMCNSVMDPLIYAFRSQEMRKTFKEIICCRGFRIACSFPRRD
T1 sequence (P41143 whole entry): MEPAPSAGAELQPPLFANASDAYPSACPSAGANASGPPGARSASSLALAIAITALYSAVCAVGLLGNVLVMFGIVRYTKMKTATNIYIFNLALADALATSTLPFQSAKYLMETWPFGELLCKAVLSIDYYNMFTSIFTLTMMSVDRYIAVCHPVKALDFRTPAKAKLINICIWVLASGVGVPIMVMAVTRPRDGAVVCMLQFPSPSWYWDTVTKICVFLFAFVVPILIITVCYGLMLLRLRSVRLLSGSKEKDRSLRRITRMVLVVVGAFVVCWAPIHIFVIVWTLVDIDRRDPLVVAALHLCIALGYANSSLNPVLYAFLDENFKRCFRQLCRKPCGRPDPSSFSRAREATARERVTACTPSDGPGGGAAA

COCC1OC(OCc2ccc3ccccc3c2)C(NC(=O)CCN)C(OCc2ccc3ccccc3c2)C1O (stereo not shown) [compound 545]
A1: inhibition of radioligand binding, human δ-opioid (DOP) ([1]; [3H]-Bremazocine): − (“−” indicates less than 50% inhibition at 10 μM)
A2: inhibition of radioligand binding, human κ-opioid (KOP) ([2]; [3H]-Diprenorphine): − (“−” indicates less than 50% inhibition at 10 μM)
A3: inhibition of radioligand binding, human melanocortin (MC3) ([3]; [125I]-NDP-αMSH): − (“−” indicates less than 50% inhibition at 10 μM)
A4: inhibition of radioligand binding, human melanocortin (MC4) ([4]; [125I]-NDP-αMSH): − (“−” indicates less than 50% inhibition at 10 μM)
A5: inhibition of radioligand binding, human melanocortin (MC5) ([5]; [125I]-NDP-αMSH, 10 µM): − (“−” indicates less than 50% inhibition at 10 μM)
A6: inhibition of radioligand binding, human melanin-concentrating hormone (MCH1) [6]: − (“−” indicates less than 50% inhibition at 10 μM)
A7: inhibition of radioligand binding, human μ-opioid (MOP) ([7]; [3H]-Naloxone): − (“−” indicates less than 50% inhibition at 10 μM)
A8: inhibition of radioligand binding, human neurokinin (NK1) ([8]; [125I]-Substance P, 10 µM): + (“+” indicates greater than 50% inhibition at 10 μM)
A9: inhibition of radioligand binding, human neuropeptide Y (NPY-Y1) ([9]; [125I]-PYY): − (“−” indicates less than 50% inhibition at 10 μM)
A10: inhibition of radioligand binding, human opioid (ORL1) ([10]; [125I]-Nociceptin): − (“−” indicates less than 50% inhibition at 10 μM)
A11: inhibition of radioligand binding, mouse urotensin (mUR2) ([11]; [125I]-Urotensin II): − (“−” indicates less than 50% inhibition at 10 μM)

CO[C@H]1[C@H](O)[C@@H](COCc2ccc3ccccc3c2)OC(OCc2ccccc2)[C@@H]1NC(=O)CNC(=N)N (stereo partly shown) [compound 86]
A1 radioligand binding inhibition [1]: − (“−” indicates less than 50% inhibition at 10 μM)
A2 radioligand binding inhibition [2]: − (“−” indicates less than 50% inhibition at 10 μM)
A3 radioligand binding inhibition [3]: + (“+” indicates greater than 50% inhibition at 10 μM)
A4 radioligand binding inhibition [4]: + (“+” indicates greater than 50% inhibition at 10 μM)
A5 radioligand binding inhibition [5]: + (“+” indicates greater than 50% inhibition at 10 μM)
A6 radioligand binding inhibition [6]: − (“−” indicates less than 50% inhibition at 10 μM)
A7 radioligand binding inhibition [7]: + (“+” indicates greater than 50% inhibition at 10 μM)
A8 radioligand binding inhibition [8]: + (“+” indicates greater than 50% inhibition at 10 μM)
A9 radioligand binding inhibition [9]: − (“−” indicates less than 50% inhibition at 10 μM)
A10 radioligand binding inhibition [10]: − (“−” indicates less than 50% inhibition at 10 μM)
A11 radioligand binding inhibition [11]: − (“−” indicates less than 50% inhibition at 10 μM)

COCC1OC(OCc2ccc3ccccc3c2)C(NC(=O)CCN)C(OCc2ccc3ccccc3c2)C1O (stereo not shown) [compound 248]
A1: inhibition of radioligand binding ([1]; [3H]-Bremazocine, FlashPlate): − (“−” indicates less than 50% inhibition at 10 μM)
A2: inhibition of radioligand binding ([2]; [3H]-Diprenorphine, filtration): − (“−” indicates less than 50% inhibition at 10 μM)
A3: inhibition of radioligand binding ([3]; [125I]-NDP-αMSH, FlashPlate): − (“−” indicates less than 50% inhibition at 10 μM)
A4: inhibition of radioligand binding ([4]; [125I]-NDP-αMSH, FlashPlate): − (“−” indicates less than 50% inhibition at 10 μM)
A5: inhibition of radioligand binding ([5]; [125I]-NDP-αMSH, FlashPlate): + (“+” indicates greater than 50% inhibition at 10 μM)
A6: inhibition of radioligand binding ([6]; [125I]-S36057, FlashPlate): − (“−” indicates less than 50% inhibition at 10 μM)
A7: inhibition of radioligand binding ([7]; [3H]-Naloxone, FlashPlate): − (“−” indicates less than 50% inhibition at 10 μM)
A8: inhibition of radioligand binding ([8]; [125I]-Substance P, filtration): + (“+” indicates greater than 50% inhibition at 10 μM)
A9: inhibition of radioligand binding ([9]; [125I]-PYY, FlashPlate): − (“−” indicates less than 50% inhibition at 10 μM)
A10: inhibition of radioligand binding ([10]; [125I]-Nociceptin, FlashPlate): − (“−” indicates less than 50% inhibition at 10 μM)
A11: inhibition of radioligand binding ([11]; [125I]-Urotensin II, FlashPlate): − (“−” indicates less than 50% inhibition at 10 μM)

CSC1OC(COCc2cccc(N)c2)C(O)C(OCc2ccc(Cl)cc2)C1NC(=O)Cc1ccccc1 (stereo not shown) [compound 333]
A1: inhibition of radioligand binding, human δ-opioid (DOP) ([1]; [3H]-Bremazocine): − (“−” indicates less than 50% inhibition at 10 μM)
A2: inhibition of radioligand binding, human κ-opioid (KOP) ([2]; [3H]-Diprenorphine): − (“−” indicates less than 50% inhibition at 10 μM)
A3: inhibition of radioligand binding, human melanocortin (MC3) ([3]; [125I]-NDP-αMSH): − (“−” indicates less than 50% inhibition at 10 μM)
A4: inhibition of radioligand binding, human melanocortin (MC4) ([4]; [125I]-NDP-αMSH): − (“−” indicates less than 50% inhibition at 10 μM)
A5: inhibition of radioligand binding, human melanocortin (MC5) ([5]; [125I]-NDP-αMSH): − (“−” indicates less than 50% inhibition at 10 μM)
A6: inhibition of radioligand binding, human melanin-concentrating hormone (MCH1) [6]: − (“−” indicates less than 50% inhibition at 10 μM)
A7: inhibition of radioligand binding, human μ-opioid (MOP) ([7]; [3H]-Naloxone): − (“−” indicates less than 50% inhibition at 10 μM)
A8: inhibition of radioligand binding, human neurokinin (NK1) ([8]; [125I]-Substance P): + (“+” indicates greater than 50% inhibition at 10 μM)
A9: inhibition of radioligand binding, human neuropeptide Y (NPY-Y1) ([9]; [125I]-PYY): − (“−” indicates less than 50% inhibition at 10 μM)
A10: inhibition of radioligand binding, human opioid (ORL1) ([10]; [125I]-Nociceptin): − (“−” indicates less than 50% inhibition at 10 μM)
A11: inhibition of radioligand binding, mouse urotensin (mUR2) ([11]; [125I]-Urotensin II): − (“−” indicates less than 50% inhibition at 10 μM)

COC[C@H]1OC(OCc2ccc3ccccc3c2)[C@H](NC(=O)CCNC(=N)N)[C@@H](OCc2ccc(-c3ccccc3)cc2)[C@@H]1O (stereo partly shown) [compound 16]
A1 radioligand binding inhibition [1]: + (“+” indicates greater than 50% inhibition at 10 μM)
A2 radioligand binding inhibition [2]: + (“+” indicates greater than 50% inhibition at 10 μM)
A3 radioligand binding inhibition [3]: + (“+” indicates greater than 50% inhibition at 10 μM)
A4 radioligand binding inhibition [4]: + (“+” indicates greater than 50% inhibition at 10 μM)
A5 radioligand binding inhibition [5]: + (“+” indicates greater than 50% inhibition at 10 μM)
A6 radioligand binding inhibition [6]: + (“+” indicates greater than 50% inhibition at 10 μM)
A7 radioligand binding inhibition [7]: + (“+” indicates greater than 50% inhibition at 10 μM)
A8 radioligand binding inhibition [8]: + (“+” indicates greater than 50% inhibition at 10 μM)
A9 radioligand binding inhibition [9]: − (“−” indicates less than 50% inhibition at 10 μM)
A10 radioligand binding inhibition [10]: − (“−” indicates less than 50% inhibition at 10 μM)
A11 radioligand binding inhibition [11]: − (“−” indicates less than 50% inhibition at 10 μM)
